In patent publication US11110167B2 (priority 2011, dated 2021):

System: human peripheral blood mononuclear cells (PBMC)
Format: cell-based

lipopolysaccharide [LPS]
IL-1α and IL-1β mean gene expression upregulated: 4.4 fold
PPARg gene expression: consistently downregulated

polyinosinic:polycytidylic acid [Poly(I:C)]
IL-1α and IL-1β mean gene expression upregulated: 4.1 fold
PPARg gene expression: consistently downregulated
